Results: patent US7022711B2, “2-(4-Pyridyl)amino-6-dialkoxyphenyl-pyrido[2,3-d]pyrimidin-7-ones” (Warner-Lambert Company, priority 2000, dated 2006)

Columns and labels:
[1] = target: T1, FGFR-1 (Homo sapiens, UniProt P11362); experiment: Kinase inhibition assay (DELFIA), FGFr; assay type: biochemical; settings: 40 μM ATP, kinase domain 20 nM
T1 construct: The kinase domains from FGFR-1, VEGFR-2, Lck, and PDGF were purified from baculoviral vectors expression systems; made in house
Method: (§1) The inhibition activity of the compounds in Examples 8, 9, 10, 11, and 12 and Reference Compounds A and B were evaluated using the Dissociated Enhanced Lanthanide Fluoroimmuno Assay (DELFIA) (Frank Loganzo and Carolyn Hardy. A sensitive, time-resolved fluorometric assay for the detection of inhibitors of phosphotyrosine kinases. American Biotechnology Laboratory, December 1998). DELFIA plates (EG&G Wallac, Gaithersburg, Md.) were coated overnight with Poly Glu Tyr (4:1) (Sigma, St. Louis, Mo.) at room temperature, washed (DELFIA wash reagent, EG&G Wallac), and spotted with 1 μL inhibitor dilution or DMSO carrier control per well. In some cases, kinase was autophosphorylated prior to analysis by incubating 45 minutes at 4° C. in the presence of 4 mM ATP and 25 mM MgCl2. A typical 100 μL kinase assay reaction contained 20 mM Tris (pH 7.5), 20 mM MgCl2, 50 mM NaCl, 5 mM DTT, and protease inhibitors (Mini EDTA-free protease inhibitor cocktail tablets, Boehringer Mannheim, Indianapolis, Ind.), 40 μM ATP, and an appropriate concentration of inhibitor. The reaction was allowed to continue for 30 minutes at room temperature. Plates were washed, blocked 30 minutes at room temperature (0.5% bovine serum albumin in DELFIA Assay Buffer, EG&G Wallac), and washed. One hundred microliter europium-conjugated antiphosphotyrosine antibody in DELFIA assay buffer was added to each well. Plates were incubated for 1 hour and decanted. One hundred microliter DELFIA enhancement solution (EG&G Wallac) was added and time-resolved fluorescence of the reactions determined using a VICTOR2 1420 multilable counter (EG&G Wallac). Compounds were tested from 10 through 0.0001 μM. c-Src was (Upstate Biotechnology, Lake Placid, N.Y.) was used at 3 units per reaction. The kinase domains from FGFR-1, VEGFR-2, Lck, and PDGF were purified from baculoviral vectors expression systems and were used in the assays at 20 nM.

[2] = target: T2, VEGFR-2 (Homo sapiens, UniProt P35968); experiment: Kinase inhibition assay (DELFIA), VEGF-2; assay type: biochemical; settings: 40 μM ATP, kinase domain 20 nM
T2 construct: The kinase domains from FGFR-1, VEGFR-2, Lck, and PDGF were purified from baculoviral vectors expression systems; made in house
Method: as §1, with “DELFIA” for “The inhibition activity of the compounds in Examples 8, 9, 10, 11, and 12 and Reference Compounds A and B were evaluated using the Dissociated Enhanced Lanthanide Fluoroimmuno Assay (DELFIA) (Frank Loganzo and Carolyn Hardy. A sensitive, time-resolved fluorometric assay for the detection of inhibitors of phosphotyrosine kinases. American Biotechnology Laboratory, December 1998). DELFIA”, “One hundred microliter DELFIA enhancement solution (EG&G Wallac) was added and time-resolved fluorescence of the reactions determined using a VICTOR2 1420 multilable counter (EG&G Wallac).” left out

[3] = target: T3, Lck (Homo sapiens, UniProt P06239); experiment: Kinase inhibition assay (DELFIA), Lck; assay type: biochemical; settings: 40 μM ATP, kinase domain 20 nM
T3 construct: The kinase domains from FGFR-1, VEGFR-2, Lck, and PDGF were purified from baculoviral vectors expression systems; made in house
Method: as §1

[4] = target: T4, c-Src (Homo sapiens, UniProt P12931); experiment: Kinase inhibition assay (DELFIA), c-Src; assay type: biochemical; settings: 40 μM ATP, c-Src 3 units per reaction
T4 construct: purchased Upstate Biotechnology, Lake Placid, N.Y
Method: as §1

[5] = Metabolic stability, mice liver S9 fraction; assay type: in vitro ADME; settings: mouse, liver S9 fraction; mice liver S9, 5 μM, 37° C., 1.0 mM NADPH; read-out: MS9 in vitro metabolic half-life
Method: (§2) Compounds were individually incubated (5 μM in DMSO) with human and mice liver S9 fractions in 50 mM KHPO4 buffer at 37° C. in the presence of 1.0 mM NADPH and additional cofactors. At 0, 10, 20, and 40 minutes, 100 μL aliquots were removed and added to 300 μL of acetonitrile. Standard curves were prepared in a similar manner with each compound. Samples were analyzed for parent concentration by LC-MS/MS. The in vitro metabolic half-life was determined from the concentration-time plots using WinNonlin. These in vitro data represent the rate of oxidative, hydrolytic, and conjugative metabolism.

[6] = Metabolic stability, human liver S9 fraction; assay type: in vitro ADME; settings: liver S9 fraction; human liver S9, 5 μM, 37° C., 1.0 mM NADPH; read-out: HS9 in vitro metabolic half-life
Method: as §2

[7] = Caco-2 cell transport (permeability) study; settings: human
Method: (§4) Cell transport studies were conducted with Caco-2 cells grown on Snapwells™ between 22 and 28 days postseeding. Typically, 10 mM MES buffer (pH 6.5) with 5 mM KCl, 135 mM NaCl, and 1.8 mM CaCl2 was used for the apical side and 10 mM MOPS (pH 7.4) with 5 M KCl, 132 mM NaCl, and 1.8 mM CaCl2 with 5 mM D-glucose was used for the basolateral side. On the day of the experiment, the growth media was aspirated, and the cell monolayers were pre-equilibrated with appropriate buffers at 37° C., and TEER measurements were performed to confirm the integrity of the monolayers. Transepithelial flux measurements were made by mounting the cell monolayers in a side-by-side diffusion chamber system (Precision Instrument Design, Tahoe City, Calif.). Temperature was maintained at 37° C. with a circulating water jacket. The solutions were mixed with gas-lift circulation with 95% oxygen/5% carbon dioxide. […] Donor and receiver samples were collected at selected time intervals for up to 3 hours. […] Test compounds were analyzed using LC-MS/MS methods. Apparent permeability coefficients were calculated using the following equation: Papp=(V·dC/dt)/(A·C0) where V=volume of the receiver solution in mL; A=surface area of the monolayer in cm^2; C0=initial donor concentration in mM; and dC/dt=change of the drug concentration in the receiver chamber over time.

[8] = system: Human umbilical vein endothelial cells (HUVECs); experiment: Serum stimulated HUVEC cell proliferation (Sulphorhodamine B); assay type: cell-based; settings: for selectivity for serum-stimulated endothelial cell proliferation: HUVEC compared to A90 and C6 tumor cell proliferation
Method: (§3) Human umbilical vein endothelial cells (HUVECs) (Clonetics, Palo Alto, Calif.) were seeded at 2000 cells per well in growth medium containing 2% serum (EGM, Clonetics) and allowed to attach overnight (37° C., 5% CO2, 100% humidity). C6 rat glioma cells (ATCC) were seeded at 600 cells per well and incubated in F10 medium (GIBCO, Gaithersburg, Md.) supplemented with 15% horse serum, 2.5% fetal bovine serum, and 1 mM glutamine. A90 human ovarian cells (Dr. Kent Crickard, SUNY/AB Medical School) were seeded at 600 cells per well in RPMI1640 (GIBCO) plus 10% fetal bovine serum. Plates were incubated overnight (37° C., 5% CO2, 100% humidity) to allow the cells to attach. Test compound dilutions were added to the appropriate wells, and the incubation was continued for 4 additional days. Monolayers were fixed in 10% trichloroacetic acid (30 minutes at 4° C.), washed with distilled water, and stained with Sulphorhodamine B (0.075% in 1% acetic acid) (Sigma). Plates were washed in 1% acetic acid, and the bound dye was solubilized in 100 μL unbuffered Tris base. Absorbance was measured at 540 nm using a reference filter wavelength of 630 nm. Inhibitor potency (IC50) versus cellular proliferation was determined, and endothelial cell selectivity was assessed by comparing the inhibition of HUVEC proliferation to A90 and C6 tumor cell proliferation (Table 3).

[9] = in vitro; settings: human, Caco-2
Method: as §4

[10] = system: A90 human ovarian cells; experiment: A90 tumor cell proliferation (Sulphorhodamine B); assay type: cell-based; settings: Homo sapiens, 96 h; 4 days with compound
Method: as §3

[11] = system: C6 rat glioma cells; experiment: C6 tumor cell proliferation (Sulphorhodamine B); assay type: cell-based; settings: Rattus norvegicus, Glioma cell, 96 h; 4 days with compound
Method: as §3

T1 sequence (P11362 478-767 limits assumed, species assumed): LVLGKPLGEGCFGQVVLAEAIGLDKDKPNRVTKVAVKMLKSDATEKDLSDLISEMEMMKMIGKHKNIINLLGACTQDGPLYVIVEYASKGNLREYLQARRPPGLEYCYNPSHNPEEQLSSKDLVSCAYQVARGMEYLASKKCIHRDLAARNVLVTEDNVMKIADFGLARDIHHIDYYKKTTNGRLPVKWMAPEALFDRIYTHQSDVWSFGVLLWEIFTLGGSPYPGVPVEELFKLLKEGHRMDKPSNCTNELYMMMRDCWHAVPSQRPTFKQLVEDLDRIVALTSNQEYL
T2 sequence (P35968 834-1162 limits assumed, species assumed): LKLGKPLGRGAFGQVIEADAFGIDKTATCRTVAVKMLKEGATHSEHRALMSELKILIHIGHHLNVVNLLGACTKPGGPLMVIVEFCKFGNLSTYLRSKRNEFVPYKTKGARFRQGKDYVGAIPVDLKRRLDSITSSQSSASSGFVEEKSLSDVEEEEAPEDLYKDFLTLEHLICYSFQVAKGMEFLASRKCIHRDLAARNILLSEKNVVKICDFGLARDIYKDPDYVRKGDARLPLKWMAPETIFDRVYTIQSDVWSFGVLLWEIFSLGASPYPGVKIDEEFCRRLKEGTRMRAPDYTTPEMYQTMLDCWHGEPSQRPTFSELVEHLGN
T3 sequence (P06239 245-498 limits assumed, species assumed): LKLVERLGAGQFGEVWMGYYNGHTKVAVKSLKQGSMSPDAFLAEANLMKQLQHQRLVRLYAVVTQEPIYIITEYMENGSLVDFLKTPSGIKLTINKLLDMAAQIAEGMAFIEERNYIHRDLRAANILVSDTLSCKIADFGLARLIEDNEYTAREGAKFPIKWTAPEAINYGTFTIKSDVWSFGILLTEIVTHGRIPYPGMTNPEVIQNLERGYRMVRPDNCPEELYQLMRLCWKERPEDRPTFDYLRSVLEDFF
T4 sequence (P12931 whole entry): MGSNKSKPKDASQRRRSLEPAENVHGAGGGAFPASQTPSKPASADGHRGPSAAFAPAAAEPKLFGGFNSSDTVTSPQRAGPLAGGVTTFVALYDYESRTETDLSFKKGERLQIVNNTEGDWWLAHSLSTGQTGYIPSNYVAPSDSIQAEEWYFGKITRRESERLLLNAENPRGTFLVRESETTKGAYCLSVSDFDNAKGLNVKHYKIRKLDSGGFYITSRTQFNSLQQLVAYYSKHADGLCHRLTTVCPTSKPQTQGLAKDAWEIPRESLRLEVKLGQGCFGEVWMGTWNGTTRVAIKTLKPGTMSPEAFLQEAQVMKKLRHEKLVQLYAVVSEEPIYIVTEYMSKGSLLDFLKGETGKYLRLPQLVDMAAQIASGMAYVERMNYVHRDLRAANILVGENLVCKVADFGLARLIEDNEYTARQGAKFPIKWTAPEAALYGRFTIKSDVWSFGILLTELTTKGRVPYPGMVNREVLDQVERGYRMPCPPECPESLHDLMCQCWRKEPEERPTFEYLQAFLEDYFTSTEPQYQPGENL

IC50 [1] [µM] | IC50 [2] [µM] | Ki [3] [µM] | IC50 [4] [µM] | melting point [°C] | Compound | selectivity for serum-stimulated endothelial cell proliferation [8] | other results
0.002 | 0.004 | 0.06 | 1.34 |  | CCN(CC)CCOc1ccc(Nc2ncc3cc(-c4cc(OC)cc(OC)c4)c(=O)n(C)c3n2)cc1 [Reference B, reference compound] |  | half-life at 5 μM [5]: 10 min; half-life at 5 μM [6]: 22 min; Papp A→B [7]: 20.1 ×10⁻⁶ cm/s
 |  |  |  | 295.5 to 297 | CCn1c(=O)c(-c2c(Cl)c(OC)cc(OC)c2Cl)cc2cnc(Nc3ccncc3)nc21 [Example 15, 6-(2,6-Dichloro-3,5-dimethoxy-phenyl)-2-(pyridin-4-ylamino)-8-ethyl-8H-pyrido[2,3-d]pyrimidin-7-one] |  | 
0.0008 | 0.001 | 0.74 | > 4 |  | CCn1c(=O)c(-c2cc(OC)cc(OC)c2)cc2cnc(Nc3cc(C)nc(C)c3)nc21 [Example 10, 6-(3,5-Dimethoxy-phenyl)-2-(2,6-dimethyl-pyridin-4-ylamino)-8-ethyl-8H-pyrido[2,3-d]pyrimidin-7-one] | selective inhibitors | 
 |  |  |  | > 300 | CCn1c(=O)c(-c2cc(OC)cc(OC)c2)cc2cnc(Nc3ccnc(C)c3)nc21 [Example 9, 6-(3,5-Dimethoxy-phenyl)-8-ethyl-2-(2-methyl-pyridin-4-ylamino)-8H-pyrido[2,3-d]pyrimidin-7-one] | selective inhibitors | 
 |  |  |  |  | CCn1c(=O)c(-c2cc(OC)cc(OC)c2)cc2cnc(Nc3cc(OC)nc(OC)c3)nc21 [Example 12, 6-(3,5-Dimethoxy-phenyl)-2-(2,6-dimethoxy-pyridin-4-ylamino)-8-ethyl-8H-pyrido[2,3-d]pyrimidin-7-one] | selective inhibitors | 
 |  |  |  |  | CCN(CC)CCOc1ccc(Nc2ncc3cc(-c4c(Cl)cccc4Cl)c(=O)n(C)c3n2)cc1 [Reference A] |  | half-life at 5 μM [5]: 14 min; half-life at 5 μM [6]: 46 min; Papp A→B [9]: 37.2 ×10⁻⁶ cm/s
 |  |  |  | 283 to 285 | COc1cc(OC)cc(-c2cc3cnc(Nc4ccncc4)nc3n(C3CCCC3)c2=O)c1 [Example 16, 6-(3,5-Dimethoxy-phenyl)-2-(pyridin-4-ylamino)-8-cyclopentyl-8H-pyrido[2,3-d]pyrimidin-7-one] |  | 
 |  |  |  |  | COCCc1ccc(OCC(O)CNC(C)C)cc1 (stereo not drawn) [metoprolol] |  | Papp A→B [7]: ~30 ×10⁻⁶ cm/s
 |  |  |  | 245 to 247 | COc1cc(OC)cc(-c2cc3cnc(Nc4ccncc4)nc3n(C)c2=O)c1 [Example 17, 6-(3,5-Dimethoxy-phenyl)-2-(pyridin-4-ylamino)-8-methyl-8H-pyrido[2,3-d]pyrimidin-7-one] |  | 
0.0002 | 0.003 | 2.77 | > 4 |  | CCn1c(=O)c(-c2cc(OC)cc(OC)c2)cc2cnc(Nc3ccnc(Cl)c3)nc21 [Example 11, 6-(3,5-Dimethoxy-phenyl)-2-(2-chloro-pyridin-4-ylamino)-8-ethyl-8H-pyrido[2,3-d]pyrimidin-7-one] | selective inhibitors | IC50 ([8]; Homo sapiens, HUVEC, 96 h, 2% serum growth medium, 4 days with compound): 0.013 µM; IC50 [10]: 25 µM; IC50 [11]: 9.68 µM
